Assay results taken from the supplement of paper PMC7661543.
± gives the standard deviation of the averaged measurements.

How the values were obtained:
Test in all cases: relative cell number vs DMSO control (72 h) (% of DMSO); higher = less growth inhibition (more cells)
Details in all cases: sgRNA knockout: sgNT
ZR-75-1 = test system: ZR-75-1
Procedure: (§1)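 QMAP-Seq: a pool of 5 breast cancer cell lines (ZR-75-1, SKBR3, HCC-38, MDA-MB-231, BT-20), each carrying 12 doxycycline-inducible Cas9 sgRNA perturbations (11 knockouts plus non-targeting sgNT), was treated with compounds for 72 h at four 10-fold doses (10 nM-10 uM or 1 nM-1 uM range). Barcodes were amplified and sequenced, and cell number was interpolated from 293T spike-in standard curves. The result is expressed as % of the median of DMSO wells. Two biological replicates.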

SKBR3 = test system: SKBR3
Procedure: as §1

BT-20 = test system: BT-20
Procedure: as §1

HCC-38 = test system: HCC-38
Procedure: as §1

MDA-MB-231 = test system: MDA-MB-231
Procedure: as §1

SMILES | relative cell number (ZR-75-1; 10 nM) | relative cell number (ZR-75-1; 100 nM) | relative cell number (ZR-75-1; 1000 nM) | relative cell number (ZR-75-1; 10000 nM) | relative cell number (SKBR3; 10 nM) | relative cell number (SKBR3; 100 nM) | relative cell number (SKBR3; 1000 nM) | relative cell number (SKBR3; 10000 nM) | relative cell number (BT-20; 10 nM) | relative cell number (BT-20; 100 nM) | relative cell number (BT-20; 1000 nM) | relative cell number (BT-20; 10000 nM) | relative cell number (HCC-38; 10 nM) | relative cell number (HCC-38; 100 nM) | relative cell number (HCC-38; 1000 nM) | relative cell number (HCC-38; 10000 nM) | relative cell number (MDA-MB-231; 10 nM) | relative cell number (MDA-MB-231; 100 nM) | relative cell number (MDA-MB-231; 1000 nM) | relative cell number (MDA-MB-231; 10000 nM)
CCCS(=O)(=O)Nc1ccc(F)c(C(=O)c2c[nH]c3ncc(Cl)cc23)c1F [PLX4720] | 138 ± 42 | 96.7 ± 15 | 123 ± 22 | 173 ± 42 | 109 ± 24 | 105 ± 22 | 93.3 ± 14 | 94.8 ± 13 | 104 ± 12 | 75.4 ± 11 | 98.4 ± 7.7 | 121 ± 32 | 103 ± 13 | 109 ± 15 | 110 ± 17 | 98.3 ± 14 | 129.8 ± 0.69 | 136 ± 62 | 70.5 ± 9.8 | 98 ± 3.6
CCC(C)SSc1ncc[nH]1 (stereo not given) [PX12] | 116 ± 19 | 102 ± 48 | 69.5 ± 9.5 | 54.7 ± 25 | 95.4 ± 14 | 95.5 ± 65 | 88.8 ± 31 | 57.7 ± 24 | 116 ± 7.8 | 132 ± 1.4 | 100 ± 4.2 | 99.6 ± 31 | 113 ± 8.1 | 101 ± 15 | 93.6 ± 8.6 | 84.9 ± 8.4 | 104 ± 30 | 128 ± 20 | 99.5 ± 25 | 54.6 ± 0.63
CCOC(=O)c1ccc(N2NC(=O)C(=Cc3ccc([N+](=O)[O-])o3)C2=O)cc1 [PYR41] | 125 ± 29 | 72.9 ± 28 | 100 ± 1.6 | 97.4 ± 40 | 106 ± 8.4 | 83.5 ± 17 | 98.3 ± 18 | 64.5 ± 46 | 93.7 ± 24 | 101 ± 13 | 103 ± 17 | 102.7 ± 0.59 | 85.8 ± 4.7 | 89.9 ± 13 | 101.7 ± 0.8 | 84.8 ± 5.1 | 133 ± 62 | 106 ± 11 | 87.6 ± 62 | 111 ± 6.8
CC(=O)O[C@H]1C(=O)[C@@]2(C)[C@H]([C@H](OC(=O)c3ccccc3)[C@]3(O)C[C@H](OC(=O)[C@H](O)[C@@H](NC(=O)c4ccccc4)c4ccccc4)C(C)=C1C3(C)C)[C@]1(OC(C)=O)CO[C@@H]1C[C@@H]2O [Paclitaxel] | 28.3 ± 2 | 18.6 ± 18 | 21.6 ± 3.9 | 43.8 ± 17 | 10.2 ± 2.9 | 6.23 ± 1.4 | 11.1 ± 1.4 | 16.4 ± 9.7 | 57.9 ± 10 | 18.7 ± 15 | 25.7 ± 9.2 | 47.3 ± 15 | 31.4 ± 5.5 | 14.4 ± 5.1 | 18 ± 2.9 | 25.4 ± 3.6 | 28.8 ± 15 | 15.6 ± 2.2 | 21.4 ± 7.8 | 29.9 ± 10
CC(=O)c1c(C)c2cnc(Nc3ccc(N4CCNCC4)cn3)nc2n(C2CCCC2)c1=O [Palbociclib] | 66.5 ± 20 | 36.6 ± 2.5 | 30 ± 3.5 | 29.9 ± 3 | 90.3 ± 0.5 | 52.1 ± 5.9 | 51.3 ± 4.3 | 43.8 ± 16 | 87.4 ± 11 | 41.8 ± 13 | 45.8 ± 1.1 | 53.889 ± 0.041 | 74.3 ± 13 | 37.4 ± 10 | 44.4 ± 2 | 42.2 ± 0.9 | 97.3 ± 57 | 30.6 ± 16 | 22.5 ± 2.1 | 22.1 ± 6
C=C1C(=O)O[C@H]2[C@H]1CC/C(C)=C/CC[C@@]1(C)O[C@@H]21 [Parthenolide] | 94.9 ± 35 | 128 ± 21 | 71.5 ± 53 | 122 ± 3.6 | 98.3 ± 24 | 122 ± 28 | 96.6 ± 16 | 98.9 ± 4.2 | 108 ± 14 | 101 ± 3.3 | 93.2 ± 14 | 96.5 ± 20 | 114 ± 6.1 | 92.6 ± 2 | 98.6 ± 16 | 113 ± 13 | 130 ± 77 | 123 ± 43 | 126 ± 11 | 124.5 ± 0.77
Cc1ccc(Nc2nccc(N(C)c3ccc4c(C)n(C)nc4c3)n2)cc1S(N)(=O)=O [Pazopanib] | 88.8 ± 3 | 52.6 ± 23 | 60.8 ± 12 | 30.5 ± 1.7 | 96.1 ± 6.7 | 48.9 ± 20 | 93.1 ± 34 | 49.1 ± 5.4 | 102 ± 15 | 86.8 ± 3.6 | 110 ± 3.6 | 73.8 ± 16 | 95.4 ± 1.7 | 95.2 ± 1.4 | 95 ± 15 | 56.8 ± 1.5 | 97 ± 39 | 90.5 ± 16 | 88.68 ± 0.85 | 66.1 ± 19
O=C(CCc1ccc(O)cc1)c1c(O)cc(O)cc1O [Phloretin] | 91.1 ± 42 | 100 ± 55 | 74 ± 11 | 112 ± 13 | 76.3 ± 4.5 | 76.5 ± 1 | 100 ± 1.3 | 90.5 ± 3.9 | 102 ± 36 | 105 ± 16 | 96.7 ± 8.2 | 107 ± 15 | 104 ± 10 | 105 ± 7 | 101 ± 13 | 113 ± 11 | 83.2 ± 2.8 | 103 ± 20 | 127 ± 16 | 106.6 ± 0.71
Cc1ccc(C(=O)Cn2c3c(sc2=N)CCCC3)cc1 [PifithrinAlpha] | 121 ± 13 | 90.9 ± 20 | 61.5 ± 23 | 37.7 ± 11 | 133 ± 10 | 84.2 ± 16 | 85.6 ± 2.5 | 67.1 ± 6.8 | 135 ± 2.2 | 95.61 ± 0.61 | 103 ± 1.8 | 77.5 ± 1.6 | 91.7 ± 2.4 | 91.4 ± 4.6 | 83.2 ± 14 | 90.2 ± 8.3 | 114 ± 41 | 85.3 ± 57 | 94.3 ± 30 | 57.2 ± 3.8
c1ccc2c(Oc3nc(Nc4ccc(N5CCOCC5)cc4)c4ncn(C5CCCCC5)c4n3)cccc2c1 [Purmorphamine] | 97.6 ± 49 | 84.6 ± 39 | 92.7 ± 11 | 52.3 ± 1.9 | 96.9 ± 34 | 124 ± 43 | 75.9 ± 29 | 51.1 ± 11 | 84.2 ± 13 | 99.65 ± 0.55 | 85.43 ± 0.29 | 79.3 ± 11 | 99.2 ± 3.6 | 95.6 ± 7.1 | 90.2 ± 1.9 | 71.8 ± 6.4 | 95.7 ± 9.6 | 75.6 ± 12 | 97 ± 66 | 52 ± 8.8
